In patent US10633379B2, “Bromodomain inhibitors” (AbbVie Inc., priority 2016, dated 2020) one finds Ki data, which are given here for 20 compounds.

The target in one experiment is BRD4 (BDI_K57-E168) (Homo sapiens (Human), UniProt O60885). The experiment in a line: TR-FRET bromodomain binding assay, BRD4 BDI. The conditions noted are these: mean Ki, calculated from IC50, probe Kd and probe concentration. The protocol:
(§1) A time-resolved fluorescence resonance energy transfer (TR-FRET) assay was used to determine the affinities of compounds of the Examples listed in Table 1 for each bromodomain of BRD4. His-tagged first (BDI: amino acids K57-E168) and second (BDII: amino acids E352-M457) bromodomains of BRD4 were expressed and purified. An Alexa647-labeled BET-inhibitor was used as the fluorescent probe in the assay.
(§2) Compound dilution series were prepared in DMSO via an approximately 3-fold serial dilution. Compound dilutions were added directly into white, low-volume assay plates (Perkin Elmer Proxiplate 384 Plus#6008280) using a Labcyte Echo in conjunction with Labcyte Access and Thermo Multidrop CombinL robotics. Compounds were then suspended in eight microliters (μL) of assay buffer (20 mM Sodium Phosphate, pH 6.0, 50 mM NaCl, 1 mM Ethylenediaminetetraacetic acid disodium salt dihydrate, 0.01% Triton X-100, 1 mM DL-Dithiothreitol) containing His-tagged bromodomain, Europium-conjugated anti-His antibody (Invitrogen PV5596) and Alexa-647-conjugated probe.
(§3) The final concentration of 1× assay mixture contained 2% DMSO, 12 nM His tagged BRD4 (BDI_K57-E168) and 100 nM probe or 4 nM His tagged BRD4 (BDII_E352-M457) and 30 nM probe, and 1 nM Europium-conjugated anti-His-tag antibody, and compound concentrations in the range of: 49.02 μM-0.61 nM or 0.98 μM-0.15 nM.
(§4) After a one-hour equilibration at room temperature, TR-FRET ratios were determined using an Envision multilabel plate reader (Ex 340, Em 495/520).
(§5) TR-FRET data were normalized to the means of 24 no-compound controls (“high”) and 8 controls containing 1 μM un-labeled probe (“low”). Percent inhibition was plotted as a function of compound concentration and the data were fit with the 4 parameter logistic equation to obtain IC50s. Inhibition constants (Ki) were calculated from the IC50s, probe Kd and probe concentration.

The next experiment concerns the target BRD4 (BDII_E352-M457) (Homo sapiens (Human), UniProt O60885). The experiment is described as follows: TR-FRET bromodomain binding assay, BRD4 BDII. The conditions noted are these: mean Ki, calculated from IC50, probe Kd and probe concentration. On the procedure:
as §1, §2, §3, §4, §5

Structures are written as SMILES.

For the compound `CCNC(=O)c1cc2c(-c3cc(C(C)(O)C(F)(F)F)cnc3Oc3c(C)cc(F)cc3C)cn(C)c(=O)c2[nH]1` (stereo not shown) [Example 79, N-ethyl-4-[2-(4-fluoro-2,6-dimethylphenoxy)-5-(1,1,1-trifluoro-2-hydroxypropan-2-yl)pyridin-3-yl]-6-methyl-7-oxo-6,7-dihydro-1H-pyrrolo[2,3-c]pyridine-2-carboxamide], the Ki (commonly the equilibrium dissociation constant of an inhibitor or competing ligand from its target) was 225 nM on BRD4 (BDI_K57-E168) and 2.5 nM at BRD4 (BDII_E352-M457).
On to `CCNC(=O)c1cc2c(-c3cc(C(C)(C)O)cnc3Oc3c(C)cc(Cl)cc3C)cn(C)c(=O)c2[nH]1` [Example 94, 4-[2-(4-chloro-2,6-dimethylphenoxy)-5-(2-hydroxypropan-2-yl)pyridin-3-yl]-N-ethyl-6-methyl-7-oxo-6,7-dihydro-1H-pyrrolo[2,3-c]pyridine-2-carboxamide], for which the Ki on BRD4 (BDI_K57-E168) was 236 nM; on BRD4 (BDII_E352-M457), 3.7 nM.
The corresponding values for `Cn1cc(-c2cc(CO)ccc2Oc2ccccc2)c2cc[nH]c2c1=O` [Compound Z, 4-[5-(hydroxymethyl)-2-phenoxyphenyl]-6-methyl-1,6-dihydro-7H-pyrrolo[2,3-c]pyridin-7-one, reference compound] are 69.9 nM and 15.5 nM.
The corresponding values for `CCNC(=O)c1cc2c(-c3cc(C(C)(C)O)ccc3C3=CCCC3)cn(C)c(=O)c2[nH]1` [Example 114, 4-[2-(cyclopent-1-en-1-yl)-5-(2-hydroxypropan-2-yl)phenyl]-N-ethyl-6-methyl-7-oxo-6,7-dihydro-1H-pyrrolo[2,3-c]pyridine-2-carboxamide] are 96 nM and 1.3 nM.
As for `CCNC(=O)c1cc2c(-c3cc(C(C)(C)O)ccc3Oc3c(C)cc(C#N)cc3C)cn(C)c(=O)c2[nH]1` [Example 73, 4-[2-(4-cyano-2,6-dimethylphenoxy)-5-(2-hydroxypropan-2-yl)phenyl]-N-ethyl-6-methyl-7-oxo-6,7-dihydro-1H-pyrrolo[2,3-c]pyridine-2-carboxamide], the Ki at BRD4 (BDI_K57-E168) is 417 nM; at BRD4 (BDII_E352-M457), 1.5 nM.
On the same counts, the results for `Cc1cc(F)cc(C)c1Oc1ncc(C(C)(C)O)cc1-c1cn(C)c(=O)c2[nH]c(C(=O)NC3(C)CC3(F)F)cc12` (stereo not shown) [Example 61, N-(2,2-difluoro-1-methylcyclopropyl)-4-[2-(4-fluoro-2,6-dimethylphenoxy)-5-(2-hydroxypropan-2-yl)pyridin-3-yl]-6-methyl-7-oxo-6,7-dihydro-1H-pyrrolo[2,3-c]pyridine-2-carboxamide] are 1580 nM and 12 nM.
As to `Cc1cccc(C)c1Oc1ccc(C(C)(C)O)nc1-c1cn(C)c(=O)c2[nH]c(C(=O)NC(C)(C)C)cc12` [Example 76, N-tert-butyl-4-[3-(2,6-dimethylphenoxy)-6-(2-hydroxypropan-2-yl)pyridin-2-yl]-6-methyl-7-oxo-6,7-dihydro-1H-pyrrolo[2,3-c]pyridine-2-carboxamide], the Ki is 927 nM on BRD4 (BDI_K57-E168) and 8.7 nM on BRD4 (BDII_E352-M457).
On the same counts, the results for `CCNC(=O)c1cc2c(-c3cc(C(C)(O)CC)cnc3Oc3c(C)cccc3C)cn(C)c(=O)c2[nH]1` (stereo not shown) [Example 8, 4-[2-(2,6-dimethylphenoxy)-5-(2-hydroxybutan-2-yl)pyridin-3-yl]-N-ethyl-6-methyl-7-oxo-6,7-dihydro-1H-pyrrolo[2,3-c]pyridine-2-carboxamide] are 359 nM and 2.3 nM.
On the same counts, the results for `Cc1cccc(C)c1Oc1ncc(C(C)(C)O)cc1-c1cn(C)c(=O)c2[nH]c(C(=O)NC3(C)CC3(F)F)cc12` (stereo not shown) [Example 34, N-(2,2-difluoro-1-methylcyclopropyl)-4-[2-(2,6-dimethylphenoxy)-5-(2-hydroxypropan-2-yl)pyridin-3-yl]-6-methyl-7-oxo-6,7-dihydro-1H-pyrrolo[2,3-c]pyridine-2-carboxamide] are 729 nM and 5.1 nM.
The corresponding values for `CCNC(=O)c1cc2c(-c3cc(S(C)(=O)=O)ccc3Oc3ccc(F)cc3F)cn(C)c(=O)c2[nH]1` [Compound Y, 4-[2-(2,4-difluorophenoxy)-5-(methylsulfonyl)phenyl]-N-ethyl-6-methyl-7-oxo-6,7-dihydro-1H-pyrrolo[2,3-c]pyridine-2-carboxamide, reference compound] are 21.6 nM and 1.32 nM.
As to `CCNC(=O)c1cc2c(-c3cc(C(C)(O)Cc4ccc(F)cc4)cnc3Oc3c(C)cccc3C)cn(C)c(=O)c2[nH]1` (stereo not shown) [Example 22, 4-{2-(2,6-dimethylphenoxy)-5-[1-(4-fluorophenyl)-2-hydroxypropan-2-yl]pyridin-3-yl}-N-ethyl-6-methyl-7-oxo-6,7-dihydro-1H-pyrrolo[2,3-c]pyridine-2-carboxamide], the results for the Ki on BRD4 (BDI_K57-E168) and at BRD4 (BDII_E352-M457) were 2500 nM and 10.5 nM, respectively.
On the same counts, the results for `CNC(=O)c1cc2c(-c3cc(C(C)(C)O)ccc3Oc3c(C)cc(F)cc3C)cn(C)c(=O)c2[nH]1` [Example 120, 4-[2-(4-fluoro-2,6-dimethylphenoxy)-5-(2-hydroxypropan-2-yl)phenyl]-N,6-dimethyl-7-oxo-6,7-dihydro-1H-pyrrolo[2,3-c]pyridine-2-carboxamide] are 161 nM and 0.8 nM.
As for `Cc1cc(C(C)(C)O)cc(C)c1Oc1ncc(C(C)(C)O)cc1-c1cn(C)c(=O)c2[nH]c(C(=O)NC(C)(C)C)cc12` [Example 125, N-tert-butyl-4-{5-(2-hydroxypropan-2-yl)-2-[4-(2-hydroxypropan-2-yl)-2,6-dimethylphenoxy]pyridin-3-yl}-6-methyl-7-oxo-6,7-dihydro-1H-pyrrolo[2,3-c]pyridine-2-carboxamide], the Ki at BRD4 (BDI_K57-E168) was 140 nM; at BRD4 (BDII_E352-M457), 3.5 nM.
In the case of `CCNC(=O)c1cc2c(-c3cc(C4(O)CCCC4)cnc3Oc3c(C)cccc3C)cn(C)c(=O)c2[nH]1` [Example 6, 4-[2-(2,6-dimethylphenoxy)-5-(1-hydroxycyclopentyl)pyridin-3-yl]-N-ethyl-6-methyl-7-oxo-6,7-dihydro-1H-pyrrolo[2,3-c]pyridine-2-carboxamide], the Ki was 273 nM on BRD4 (BDI_K57-E168) and 2.3 nM at BRD4 (BDII_E352-M457).
As for `Cc1cc(F)cc(Cl)c1Oc1ncc(C(C)(C)O)cc1-c1cn(C)c(=O)c2[nH]c(C(=O)NC(C)(C)C)cc12` [Example 51, N-tert-butyl-4-[2-(2-chloro-4-fluoro-6-methylphenoxy)-5-(2-hydroxypropan-2-yl)pyridin-3-yl]-6-methyl-7-oxo-6,7-dihydro-1H-pyrrolo[2,3-c]pyridine-2-carboxamide], the Ki is 263 nM on BRD4 (BDI_K57-E168) and 4.9 nM at BRD4 (BDII_E352-M457).
As for `CCNC(=O)c1cc2c(-c3cc(C(C)(O)CCCO)ccc3Oc3c(C)cc(F)cc3C)cn(C)c(=O)c2[nH]1` (stereo not shown) [Example 128, 4-[5-(2,5-dihydroxypentan-2-yl)-2-(4-fluoro-2,6-dimethylphenoxy)phenyl]-N-ethyl-6-methyl-7-oxo-6,7-dihydro-1H-pyrrolo[2,3-c]pyridine-2-carboxamide], the Ki was 469 nM on BRD4 (BDI_K57-E168) and 1.3 nM on BRD4 (BDII_E352-M457).
As to `CCNC(=O)c1cc2c(-c3cc(C(C)(C)O)cnc3Oc3c(C)cccc3Cl)cn(C)c(=O)c2[nH]1` [Example 29, 4-[2-(2-chloro-6-methylphenoxy)-5-(2-hydroxypropan-2-yl)pyridin-3-yl]-N-ethyl-6-methyl-7-oxo-6,7-dihydro-1H-pyrrolo[2,3-c]pyridine-2-carboxamide], the results for the Ki on BRD4 (BDI_K57-E168) and at BRD4 (BDII_E352-M457) were 594 nM and 1.3 nM, respectively.
On the same counts, the results for `CCNC(=O)c1cc2c(-c3cc(C(C)(O)CCO)ccc3Oc3c(C)cccc3C)cn(C)c(=O)c2[nH]1` (stereo not shown) [Example 67, 4-[5-(2,4-dihydroxybutan-2-yl)-2-(2,6-dimethylphenoxy)phenyl]-N-ethyl-6-methyl-7-oxo-6,7-dihydro-1H-pyrrolo[2,3-c]pyridine-2-carboxamide] are 259 nM and 1.1 nM.
The corresponding values for `CCNC(=O)c1cc2c(-c3cc(C(O)(CC)c4ccccc4)cnc3Oc3c(C)cccc3C)cn(C)c(=O)c2[nH]1` (stereo not shown) [Example 7, 4-[2-(2,6-dimethylphenoxy)-5-(1-hydroxy-1-phenylpropyl)pyridin-3-yl]-N-ethyl-6-methyl-7-oxo-6,7-dihydro-1H-pyrrolo[2,3-c]pyridine-2-carboxamide] are 632 nM and 4.1 nM.
In the case of `CCNC(=O)c1cc2c(-c3cc(C(C)(C)O)ccc3C3=CCC(C)CC3)cn(C)c(=O)c2[nH]1` (stereo not shown) [Example 113, N-ethyl-4-[4-(2-hydroxypropan-2-yl)-4′-methyl[2′,3′,4′,5′-tetrahydro[1,1′-biphenyl]]-2-yl]-6-methyl-7-oxo-6,7-dihydro-1H-pyrrolo[2,3-c]pyridine-2-carboxamide], the Ki at BRD4 (BDI_K57-E168) was 98 nM; on BRD4 (BDII_E352-M457), 1.5 nM.
